For one experiment, the target named is human CB2 receptors (Homo sapiens (Human), UniProt P34972). Briefly: human CB2 radioligand binding assay ([3H]CP 55,940 competition). Particulars: HEK293 membranes, 0.5 nM [3H]CP 55,940. The method, then: HEK293 cells stably expressing human CB2 receptors were grown until a confluent monolayer was formed. Briefly, the cells were harvested and homogenized in TE buffer (50 mM Tris-HCl, 1 mM MgCl2, and 1 mM EDTA) using a polytron for 2×10 second bursts in the presence of protease inhibitors, followed by centrifugation at 45,000×g for 20 minutes. The final membrane pellet was re-homogenized in storage buffer (50 mM Tris-HCl, 1 mM MgCl2, and 1 mM EDTA and 10% sucrose) and frozen at −78° C. until used. Saturation binding reactions were initiated by the addition of membrane preparation (protein concentration of 5 μg/well for human CB2) into wells of a deep well plate containing [^3H]CP 55,940 (120 Ci/mmol, a nonselective CB agonist commercially available from Tocris) in assay buffer (50 mM Tris, 2.5 mM EDTA, 5 mM MgCl2, and 0.5 mg/mL fatty acid free BSA, pH 7.4). After 90 min incubation at 30° C., binding reaction was terminated by the addition of 300 μL/well of cold assay buffer followed by rapid vacuum filtration through a UniFilter-96 GF/C filter plates (pre-soaked in 1 mg/mL BSA for 2 hours). The bound activity was counted in a TopCount using Microscint-20. Saturation experiments were conducted with twelve concentrations of [^3H]CP 55,940 ranging from 0.01 to 8 nM. Competition experiments were conducted with 0.5 nM [^3H]CP 55,940 and five concentrations (0.01 nM to 10 μM) of displacing ligands. The addition of 10 μM unlabeled CP 55,940 (Tocris, Ellisville, Mo.) was used to assess nonspecific binding.

A further experiment addresses rat CB2 receptors (Rattus norvegicus (Rat), UniProt Q9QZN9). Briefly: rat CB2 radioligand binding assay ([3H]CP 55,940 competition). Particulars: HEK293 membranes, 0.5 nM [3H]CP 55,940. How it is done:
HEK293 cells stably expressing rat CB2 receptors were grown until a confluent monolayer was formed. Briefly, the cells were harvested and homogenized in TE buffer (50 mM Tris-HCl, 1 mM MgCl2, and 1 mM EDTA) using a polytron for 2×10 second bursts in the presence of protease inhibitors, followed by centrifugation at 45,000×g for 20 minutes. The final membrane pellet was re-homogenized in storage buffer (50 mM Tris-HCl, 1 mM MgCl2, and 1 mM EDTA and 10% sucrose) and frozen at −78° C. until used. Saturation binding reactions were initiated by the addition of membrane preparation (protein concentration of 20 μg/well for rat CB2) into wells of a deep well plate containing [^3H]CP 55,940 (120 Ci/mmol, a nonselective CB agonist commercially available from Tocris) in assay buffer (50 mM Tris, 2.5 mM EDTA, 5 mM MgCl2, and 0.5 mg/mL fatty acid free BSA, pH 7.4). After 45 min incubation at 30° C., binding reaction was terminated by the addition of 300 μl/well of cold assay buffer followed by rapid vacuum filtration through a UniFilter-96 GF/C filter plates (pre-soaked in 1 mg/mL BSA for 2 hours). The bound activity was counted in a TopCount using Microscint-20. Saturation experiments were conducted with twelve concentrations of [^3H]CP 55,940 ranging from 0.01 to 8 nM. Competition experiments were conducted with 0.5 nM [^3H]CP 55,940 and five concentrations of displacing ligands selected from the range of 0.01 nM to 10 μM. The addition of 10 μM unlabeled CP 55,940 (Tocris, Ellisville, Mo.) was used to assess nonspecific binding.

Sequence of rat CB2 receptors (Q9QZN9 whole entry): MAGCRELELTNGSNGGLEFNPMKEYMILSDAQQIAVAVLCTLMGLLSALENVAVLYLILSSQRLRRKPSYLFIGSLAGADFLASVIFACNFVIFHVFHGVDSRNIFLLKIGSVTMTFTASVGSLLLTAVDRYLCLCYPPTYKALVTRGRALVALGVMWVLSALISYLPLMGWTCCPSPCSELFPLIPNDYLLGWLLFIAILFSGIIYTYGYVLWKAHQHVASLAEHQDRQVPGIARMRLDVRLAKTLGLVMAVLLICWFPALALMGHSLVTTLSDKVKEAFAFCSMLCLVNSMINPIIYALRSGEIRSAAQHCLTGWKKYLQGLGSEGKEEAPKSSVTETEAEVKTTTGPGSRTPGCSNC
Sequence of human CB2 receptors (P34972 whole entry): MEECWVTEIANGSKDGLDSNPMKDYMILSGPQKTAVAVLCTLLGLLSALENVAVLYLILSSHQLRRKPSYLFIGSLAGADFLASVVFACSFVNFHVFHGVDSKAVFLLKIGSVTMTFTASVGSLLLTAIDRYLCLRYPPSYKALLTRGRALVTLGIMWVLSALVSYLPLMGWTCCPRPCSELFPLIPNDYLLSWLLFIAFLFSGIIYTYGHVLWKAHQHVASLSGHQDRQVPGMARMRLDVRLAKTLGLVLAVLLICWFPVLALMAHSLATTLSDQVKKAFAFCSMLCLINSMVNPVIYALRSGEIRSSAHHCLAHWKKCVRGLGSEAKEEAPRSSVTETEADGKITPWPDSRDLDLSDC

As a reminder, the Ki is the equilibrium dissociation constant of an inhibitor or competing ligand from its target. High values mean weaker binding, low ones tighter binding. `CCCCn1cc(C(C)(C)C)s/c1=N\C(=O)c1cc(C(F)(F)F)ccc1ONC(C)(C)C` [Example 23, 2-[(tert-butylamino)oxy]-N-[(2Z)-3-butyl-5-tert-butyl-1,3-thiazol-2(3H)-ylidene]-5-(trifluoromethyl)benzamide]: the results for the Ki at human CB2 receptors and on rat CB2 receptors were 6.7 nM and 0.95 nM, respectively.

`CCCCn1cc(C(C)(C)C)s/c1=N\C(=O)c1cc(C(F)(F)F)ccc1OCC(C)(C)O` [Example 32, N-[(2Z)-3-butyl-5-tert-butyl-1,3-thiazol-2(3H)-ylidene]-2-(2-hydroxy-2-methylpropoxy)-5-(trifluoromethyl)benzamide]: the Ki on human CB2 receptors worked out at 0.82 nM; at rat CB2 receptors, 1.2 nM.

For the molecule `Cc1s/c(=N\C(=O)c2cc(C(F)(F)F)ccc2OC[C@@H]2CCCN2C)n(CC2CC2)c1C` [Example 24, N-[(2Z)-3-(cyclopropylmethyl)-4,5-dimethyl-1,3-thiazol-2(3H)-ylidene]-2-{[(2S)-1-methylpyrrolidin-2-yl]methoxy}-5-(trifluoromethyl)benzamide], the Ki amounted to 30 nM at human CB2 receptors and 35 nM at rat CB2 receptors.

Take `CCCCn1/c(=N/C(=O)c2cc(C(F)(F)F)ccc2OCC(C)(C)O)sc2ncccc21` [Example 35, N-[(2Z)-1-butyl[1,3]thiazolo[5,4-b]pyridin-2(1H)-ylidene]-2-(2-hydroxy-2-methylpropoxy)-5-(trifluoromethyl)benzamide]: the Ki was found to be 15 nM on human CB2 receptors and 28 nM on rat CB2 receptors.

Regarding `CC(C)Cn1cc(C(C)(C)C)s/c1=N\C(=O)c1ccccc1OC[C@@H]1CCCN1C` [Example 10, N-[(2Z)-5-tert-butyl-3-isobutyl-1,3-thiazol-2(3H)-ylidene]-2-{[(2S)-1-methylpyrrolidin-2-yl]methoxy}benzamide], the Ki was 296 nM at human CB2 receptors and 243 nM at rat CB2 receptors.

For the molecule `CCCCn1/c(=N/C(=O)c2cc(C(F)(F)F)ccc2OC[C@H](C)O)sc2ncccc21` [Example 36, N-[(2Z)-1-butyl[1,3]thiazolo[5,4-b]pyridin-2(1H)-ylidene]-2-{[(2S)-2-hydroxypropyl]oxy}-5-(trifluoromethyl)benzamide], the values for the Ki on human CB2 receptors and at rat CB2 receptors were 1.4 nM and 2.1 nM, respectively.

Regarding `CCCCn1/c(=N/C(=O)c2cc(C(F)(F)F)ccc2OC[C@@H](C)O)sc2ccncc21` [Example 28, N-[(2Z)-3-butyl[1,3]thiazolo[4,5-c]pyridin-2(3H)-ylidene]-2-{[(2R)-2-hydroxypropyl]oxy}-5-(trifluoromethyl)benzamide], the Ki is 75 nM at human CB2 receptors and 63 nM at rat CB2 receptors.

With `CC(C)(O)COc1ccc(C(F)(F)F)cc1C(=O)/N=c1\sc2ccncc2n1CCCC(F)(F)F` [Example 27, 2-(2-hydroxy-2-methylpropoxy)-N-[(2Z)-3-(4,4,4-trifluorobutyl)[1,3]thiazolo[4,5-c]pyridin-2(3H)-ylidene]-5-(trifluoromethyl)benzamide], the Ki is 8.4 nM at human CB2 receptors and 10 nM at rat CB2 receptors.

As for `CC(C)Cn1cc(C(C)(C)C)s/c1=N\C(=O)c1cc(C(F)(F)F)ccc1O[C@H]1CCN(C)C1` [Example 13, N-[(2Z)-5-tert-butyl-3-isobutyl-1,3-thiazol-2(3H)-ylidene]-2-{[(3S)-1-methylpyrrolidin-3-yl]oxy}-5-(trifluoromethyl)benzamide], the results for the inhibition constant (Ki) at human CB2 receptors and at rat CB2 receptors were 111 nM and 81 nM, respectively.

On to `CCCCn1/c(=N/C(=O)c2cc(C(F)(F)F)ccc2OC[C@@H]2CCCN2C)sc2ccncc21` [Example 33, N-[(2Z)-3-butyl[1,3]thiazolo[4,5-c]pyridin-2(3H)-ylidene]-2-{[(2S)-1-methylpyrrolidin-2-yl]methoxy}-5-(trifluoromethyl)benzamide], for which the Ki at human CB2 receptors turned out to be 34 nM; on rat CB2 receptors, 35 nM.

As to `CCCCn1/c(=N/C(=O)c2cc(C(F)(F)F)ccc2ONC(C)(C)C)sc2ccncc21` [Example 22, 2-[(tert-butylamino)oxy]-N-[(2Z)-3-butyl[1,3]thiazolo[4,5-c]pyridin-2(3H)-ylidene]-5-(trifluoromethyl)benzamide], the Ki is 62 nM at human CB2 receptors and 73 nM at rat CB2 receptors.

`CCCCn1cc(C(C)(C)C)s/c1=N\C(=O)c1cc(C(F)(F)F)ccc1NNC(=O)c1cccnc1` [Example 37, N-[(2Z)-3-butyl-5-tert-butyl-1,3-thiazol-2(3H)-ylidene]-2-[2-(pyridin-3-ylcarbonyl)hydrazino]-5-(trifluoromethyl)benzamide]: the Ki at human CB2 receptors amounted to 1.6 nM; on rat CB2 receptors, 0.77 nM.

With `CCCCn1cc(C(C)(C)C)s/c1=N\C(=O)c1cc(C(F)(F)F)ccc1NNC(=O)c1ccncc1` [Example 38, N-[(2Z)-3-butyl-5-tert-butyl-1,3-thiazol-2(3H)-ylidene]-2-(2-isonicotinoylhydrazino)-5-(trifluoromethyl)benzamide], the Ki on human CB2 receptors was found to be 1.1 nM; on rat CB2 receptors, 2.3 nM.

Turning to `CCCCn1c(C(=O)OC)c(C(C)C)s/c1=N\C(=O)c1cc(C(F)(F)F)ccc1ONC(C)(C)C` [Example 34], the Ki worked out at 129 nM on human CB2 receptors and 48 nM on rat CB2 receptors.

As to `CC(C)(O)COc1ccc(C(F)(F)F)cc1C(=O)/N=c1\sc2ccncc2n1CC1CCC1` [Example 26, N-[(2Z)-3-(cyclobutylmethyl)[1,3]thiazolo[4,5-c]pyridin-2(3H)-ylidene]-2-(2-hydroxy-2-methylpropoxy)-5-(trifluoromethyl)benzamide], the Ki at human CB2 receptors turned out to be 2.5 nM; on rat CB2 receptors, 7.4 nM.

Turning to `CCCCn1/c(=N/C(=O)c2cc(C(F)(F)F)ccc2OCCC(C)(C)O)sc2ccncc21` [Example 20, N-[(2Z)-3-butyl[1,3]thiazolo[4,5-c]pyridin-2(3H)-ylidene]-2-(3-hydroxy-3-methylbutoxy)-5-(trifluoromethyl)benzamide], the Ki at human CB2 receptors amounted to 35 nM; on rat CB2 receptors, 48 nM.

Consider `C#CCCn1cc(C(C)(C)C)s/c1=N\C(=O)c1cc(C(F)(F)F)ccc1ONC(C)(C)C` [Example 30, 2-[(tert-butylamino)oxy]-N-[(2Z)-5-tert-butyl-3-but-3-ynyl-1,3-thiazol-2(3H)-ylidene]-5-(trifluoromethyl)benzamide], for which the Ki on human CB2 receptors was 15 nM; at rat CB2 receptors it was 0.75 nM.

Consider `CC(C)Cn1cc(C(C)(C)C)s/c1=N\C(=O)c1cc(C#N)ccc1OC1CCC1` [Example 16, N-[(2Z)-5-tert-butyl-3-isobutyl-1,3-thiazol-2(3H)-ylidene]-5-cyano-2-(cyclobutyloxy)benzamide], for which the inhibition constant (Ki) at human CB2 receptors came out at 96 nM; on rat CB2 receptors it was 5.2 nM.

Take `CC(C)Cn1cc(C(C)(C)C)s/c1=N\C(=O)c1cc(C(F)(F)F)ccc1OCCn1ccnc1` [Example 6, N-[(2Z)-5-tert-butyl-3-isobutyl-1,3-thiazol-2(3H)-ylidene]-2-[2-(1H-imidazol-1-yl)ethoxy]-5-(trifluoromethyl)benzamide]: the results for the Ki at human CB2 receptors and on rat CB2 receptors were 96 nM and 39 nM, respectively.

Turning to `CC(C)(C)c1cn(CCC(F)(F)F)/c(=N/C(=O)c2cc(C#N)ccc2OC2CCC2)s1` [Example 17, N-[(2Z)-5-tert-butyl-3-(3,3,3-trifluoropropyl)-1,3-thiazol-2(3H)-ylidene]-5-cyano-2-(cyclobutyloxy)benzamide], the Ki amounted to 53 nM on human CB2 receptors and 1.1 nM on rat CB2 receptors.

Take `CC(C)Cn1cc(C(C)(C)C)s/c1=N\C(=O)c1cc(Cl)ccc1OC1CC1` [Example 15, N-[(2Z)-5-tert-butyl-3-isobutyl-1,3-thiazol-2(3H)-ylidene]-5-chloro-2-(cyclopropyloxy)benzamide]: the figures for the Ki at human CB2 receptors and at rat CB2 receptors were 9.9 nM and 1.1 nM, respectively.

Source of the values: US8895592B2, “Compounds as cannabinoid receptor ligands” (priority 2008, dated 2014).
